Reference: patent US20240246967A1, “AXL COMPOUNDS” (ARCUS BIOSCIENCES, INC., priority 2021, published 2024)
pIC50: −log10 of the molar value.

Experiments:
[1] = biological target: T1, Axl (Homo sapiens, UniProt P30530); experiment: Axl NanoBRET intracellular kinase assay (intracellular binding, Cell Binding); parameters: host or cells: HEK-293; settings: HEK-293 cells transfected with Axl-NanoLuc fusion vector; 0.35 μM K-5 NanoBRET tracer
T1 sequence (P30530 26-894): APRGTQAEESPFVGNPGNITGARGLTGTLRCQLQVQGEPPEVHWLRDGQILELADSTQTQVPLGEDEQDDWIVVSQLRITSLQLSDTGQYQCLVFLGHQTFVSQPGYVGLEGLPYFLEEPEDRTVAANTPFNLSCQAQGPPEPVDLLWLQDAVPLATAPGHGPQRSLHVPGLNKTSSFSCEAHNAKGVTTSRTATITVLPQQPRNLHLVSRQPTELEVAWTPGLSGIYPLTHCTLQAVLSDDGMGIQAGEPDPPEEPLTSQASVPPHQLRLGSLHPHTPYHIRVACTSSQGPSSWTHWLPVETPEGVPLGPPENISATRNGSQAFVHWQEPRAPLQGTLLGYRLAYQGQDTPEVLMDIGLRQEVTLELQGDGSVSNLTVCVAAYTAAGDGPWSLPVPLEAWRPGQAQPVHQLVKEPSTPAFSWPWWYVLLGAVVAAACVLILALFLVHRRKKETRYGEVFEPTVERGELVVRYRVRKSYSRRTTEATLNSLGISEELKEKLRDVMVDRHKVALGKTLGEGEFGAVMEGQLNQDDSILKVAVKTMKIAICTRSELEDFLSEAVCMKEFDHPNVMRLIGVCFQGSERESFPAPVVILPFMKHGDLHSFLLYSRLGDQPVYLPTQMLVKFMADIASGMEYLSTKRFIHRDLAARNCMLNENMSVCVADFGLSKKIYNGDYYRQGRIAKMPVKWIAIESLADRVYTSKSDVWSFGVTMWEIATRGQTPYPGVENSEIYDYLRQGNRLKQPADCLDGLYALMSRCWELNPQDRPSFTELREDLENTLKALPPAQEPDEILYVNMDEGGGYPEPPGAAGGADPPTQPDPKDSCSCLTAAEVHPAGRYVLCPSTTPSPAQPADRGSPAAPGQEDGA
Experimental: Axl NanoBRET™ intracellular kinase assay (Promega, N2540) was performed according to manufacturer's recommendation. In brief, HEK-293 cells are transiently transfected with Axl-NanoLuc fusion vector (Promega, NV1071), utilizing Fugene HD transfection reagent (Promega, E2311) a day before experiment following manufacturer's recommendation.
The day of the assay, the cells were collected and resuspended in Opti-MEM media (ThermoFisher, 31985070) at 2e5 cells/mL concentration. Testing compounds were serial diluted and dispensed into a white 384 well polystyrene plate at 200 nL in 100% DMSO. 40 μL of resuspended cells is then added per well for a final condition of 8K cells/well with 0.5% DMSO. After one-hour compound pre-incubation at 37° C. and 5% CO2, cells were further incubated with 0.35 μM K-5 NanoBRET tracer for two-hours at 37° C. and 5% CO2. […] of 3× substrate plus Inhibitor solution was prepared according to kits manual and added to the cells followed by a 30 second pulse centrifugation spin. The plate was then immediately read utilizing an Envision (Perkin Elmer) plate reader. The BRET signal is measured by taking the ratio of the emissions reading at 610 nm and 450 nm. Compound binding is based on the decrease BRET signal caused by the displacement of the K-5 tracer. […] IC50 value of compounds was determined by 4-parameter non-linear regression fitting of percent activity in GraphPad Prism software.

[2] = biological target: T1, Axl; experiment: HTRF KinEASE-TK biochemical potency assay, AXL; parameters: purchased Invitrogen; settings: 5 nM AXL, 700 μM ATP, 800 nM TK Substrate-biotin
Experimental: Purified recombinant human AXL, TYRO3 and MER proteins were purchased from Invitrogen™. 10 nM AXL, 2 nM TYRO3 or MER were incubated with varying concentrations of compounds in 50 mM HEPES, pH 7.4, 10 mM MgCl2, 0.01% BSA, 1 mM DTT and 2% DMSO in a total volume of 20 μl in a 384-well microplate (Corning™ #3640) at RT for 1 h. The AXL, TYRO3 and MER enzymatic reaction was initiated by transferring 10 μl of enzyme and compound mixture into 10 μl of 1.6 μM TK Substrate-biotin (HTRF® KinEASE-TK kit, Cisbio) and 1400 μM ATP pre-incubated in 50 mM HEPES, pH 7.4, 10 mM MgCl2, 0.01% BSA, 1 mM DTT in a 384-well microplate (Corning™ #3640) at RT, giving the final reaction conditions: 5 nM AXL, 1 nM TYRO3 or MER, 800 nM TK Substrate-biotin and 700 μM ATP in 50 mM HEPES, pH 7.4, 10 mM MgCl2, 0.01% BSA, 1 mM DTT and 1% DMSO with varying concentrations of compounds. Following 2 h incubation at RT, the AXL, TYRO3 and MER enzymatic reaction was stopped by transfer of 10 μl of reaction into 10 μl of detection mix (400 nM Streptavidin-XL665, 200-fold dilution TK Antibody-Cryptate and detection buffer, HTRF® KinEASE-TK kit, Cisbio) in a white 384-well microplate (Perkin Elmer, OptiPlate 384). After 1 h incubation at RT, the plate was put into a plate reader (Evision) to read at 665/620 nm (acceptor/donor) for HTRF. The value of the DMSO blank (MIN inhibition=100% activity) was used as a negative control. The positive control was established by adding 5 μl of enzyme and DMSO mixture into 10 μl of detection mix followed by addition of 5 μl of TK Substrate-biotin and ATP mixture (MAX inhibition=0% activity). To calculate the percent activity, Equation 1 was used. Ratio 665/620 is the value at a given compound concentration: […]

`CC(O)(c1ccc(-c2n[nH]c3ncc(-c4ccc5c(c4)CCN(C4CCCC4)CC5)cc23)cc1)C(F)(F)F` (stereo not shown) [Example 13, 2-{4-[5-(3-Cyclopentyl-2,3,4,5-tetrahydro-1H-3-benzazepin-7-yl)-1H-pyrazolo[3,4-b]pyridin-3-yl]phenyl}-1,1,1-trifluoropropan-2-ol] gave a pIC50 [1] of 6.00 to 7.00.
With `CC(C)(O)c1ccc(-c2n[nH]c3ncc(-c4ccc5c(c4)CCN(C4CCCC4)CC5)cc23)cc1OC(F)(F)F` [Example 14, 2-{4-[5-(3-Cyclopentyl-2,3,4,5-tetrahydro-1H-3-benzazepin-7-yl)-1H-pyrazolo[3,4-b]pyridin-3-yl]-2-(trifluoromethoxy)phenyl}propan-2-ol] the pIC50 [1] was under 6.00.
`CC(C)(O)c1ccc(-c2n[nH]c3ncc(-c4ccc5c(c4)CCN(C4CCCC4)CC5)c(F)c23)cc1Cl` [Example 15, 2-{2-Chloro-4-[5-(3-cyclopentyl-2,3,4,5-tetrahydro-1H-3-benzazepin-7-yl)-4-fluoro-1H-pyrazolo[3,4-b]pyridin-3-yl]phenyl}propan-2-ol] showed a pIC50 [1] of under 6.00.
`CC(C)(O)c1ccc(-c2n[nH]c3ncc(-c4ccc5c(c4)CCN(C4CCCC4)CC5)cc23)cc1` [Example 18, 2-{4-[5-(3-Cyclopentyl-2,3,4,5-tetrahydro-1H-3-benzazepin-7-yl)-1H-pyrazolo[3,4-b]pyridin-3-yl]phenyl}propan-2-ol] gave a pIC50 [1] of 6.00 to 7.00.
In the case of `CS(=O)(=O)c1ccc(-c2n[nH]c3nc(N)c(-c4ccc5c(c4)CCN(C4CCCC4)CC5)cc23)cc1` [Example 19, 5-(3-Cyclopentyl-2,3,4,5-tetrahydro-1H-3-benzazepin-7-yl)-3-(4-methanesulfonylphenyl)-1H-pyrazolo[3,4-b]pyridin-6-amine], the pIC50 [2] was 6.00 to 7.00 and the pIC50 [1] was under 6.00.
`CC(C)(O)c1ccc(-c2n[nH]c3ncc(-c4ccc5c(c4)CCN(C4CCCC4)C5)cc23)cc1Cl` [Example 28, 2-(2-Chloro-4-(5-(2-cyclopentyl-1,2,3,4-tetrahydroisoquinolin-6-yl)-1H-pyrazolo[3,4-b]pyridin-3-yl)phenyl)propan-2-ol] gave a pIC50 [1] of under 6.00.
`CC(C)(O)c1ccc(-c2n[nH]c3ncc(-c4ccc5c(c4)CN(C4CCCC4)CC5)cc23)cc1Cl` [Example 29, 2-(2-Chloro-4-(5-(2-cyclopentyl-1,2,3,4-tetrahydroisoquinolin-7-yl)-1H-pyrazolo[3,4-b]pyridin-3-yl)phenyl)propan-2-ol] gave a pIC50 [1] of under 6.00.
In the case of `CC(C)(C#N)c1ccc(-c2n[nH]c3ncc(-c4ccc5c(c4)CCN(C4CCCC4)CC5)cc23)cc1` [Example 33, 2-(4-(5-(3-Cyclopentyl-2,3,4,5-tetrahydro-1H-benzo[d]azepin-7-yl)-1H-pyrazolo[3,4-b]pyridin-3-yl)phenyl)-2-methylpropanenitrile], the pIC50 [2] was 6.00 to 7.00 and the pIC50 [1] was under 6.00.
Compound `CC(C)S(=O)(=O)c1ccc(-c2n[nH]c3ncc(-c4ccc5c(c4)CCC(C)(N4CCC[C@H]4C)CC5)cc23)cc1` (stereo partly drawn) [Example 43, 3-(4-(Isopropylsulfonyl)phenyl)-5-(7-methyl-7-((R)-2-methylpyrrolidin-1-yl)-6,7,8,9-tetrahydro-5H-benzo[7]annulen-2-yl)-1H-pyrazolo[3,4-b]pyridine] has a pIC50 [2] of over 7.00 and a pIC50 [1] of over 7.00.
Compound `CCS(=O)(=O)c1ccc(-c2n[nH]c3ncc(-c4ccc5c(c4)CCC(C)(N4CCC[C@H]4C)CC5)cc23)cc1` (stereo partly drawn) [Example 44, 3-(4-(Ethylsulfonyl)phenyl)-5-(7-methyl-7-((R)-2-methylpyrrolidin-1-yl)-6,7,8,9-tetrahydro-5H-benzo[7]annulen-2-yl)-1H-pyrazolo[3,4-b]pyridine] has a pIC50 [2] of over 7.00 and a pIC50 [1] of over 7.00.
`CC(C)(O)c1ccc(-c2n[nH]c3ncc(-c4ccc5c(c4)CC[C@@H](N4CCCC4)CC5)cc23)c(Cl)c1` [Example 51, 2-(3-Chloro-4-{5-[(7S)-7-(pyrrolidin-1-yl)-6,7,8,9-tetrahydro-5H-benzo[7]annulen-2-yl]-1H-pyrazolo[3,4-b]pyridin-3-yl}phenyl)propan-2-ol] gave a pIC50 [2] of 6.00 to 7.00 and a pIC50 [1] of 6.00 to 7.00.
`CNC(=O)c1ccc(-c2n[nH]c3ncc(-c4ccc5c(c4)CCC(C)(N4CCC[C@H]4C)CC5)cc23)cc1` (stereo partly drawn) [Example 71, N-Methyl-4-(5-{7-methyl-7-[(2R)-2-methylpyrrolidin-1-yl]-6,7,8,9-tetrahydro-5H-benzo[7]annulen-2-yl}-1H-pyrazolo[3,4-b]pyridin-3-yl)benzamide] showed a pIC50 [1] of over 7.00.
`Cc1cc(C(N)=O)ccc1-c1n[nH]c2ncc(-c3ccc4c(c3)CC[C@@H](N3CCCC3)CC4)cc12` [Example 86, (S)-3-Methyl-4-(5-(7-(pyrrolidin-1-yl)-6,7,8,9-tetrahydro-5H-benzo[7]annulen-2-yl)-1H-pyrazolo[3,4-b]pyridin-3-yl)benzamide] was tested, and the pIC50 [2] was over 7.00 and the pIC50 [1] was 6.00 to 7.00.
`CC(C)(O)c1ccc(-c2c[nH]c3ncc(-c4ccc5c(c4)CCC(N4CCCC4)CC5)cc23)cc1Cl` (stereo not shown) [Example 106, 2-(2-Chloro-4-{5-[7-(pyrrolidin-1-yl)-6,7,8,9-tetrahydro-5H-benzo[7]annulen-2-yl]-1H-pyrrolo[2,3-b]pyridin-3-yl}phenyl)propan-2-ol] was tested, and the pIC50 [2] was over 7.00 and the pIC50 [1] was 6.00 to 7.00.
In the case of `C[C@@H]1CCCN1C1(C)CCc2ccc(-c3cnc4[nH]cc(C5CCN(S(C)(=O)=O)CC5)c4c3)cc2CC1` (stereo partly drawn) [Example 116, 1-Methanesulfonyl-4-(5-{7-methyl-7-[(2R)-2-methylpyrrolidin-1-yl]-6,7,8,9-tetrahydro-5H-benzo[7]annulen-2-yl}-1H-pyrrolo[2,3-b]pyridin-3-yl)piperidine], the pIC50 [1] was over 7.00.
